For assay [1], the system named is LTD4-induced contractions of the isolated ileum. Kind of assay: Inhibitory action on LTD4-induced contractions of the guinea-pig ileum. It counts as cell-based, guinea-pigs. The following applies: Cavia porcellus; synthetic LTD4, guinea-pig ileum segments in Tyrode's solution, 38° C. The procedure:
(§1) For example, they have an anti-allergic action which is based on a pronounced LTD4 (leucotriene-D4) and PAF (PAF-acetoether) antagonism.
Inhibitory action on LTD4 -induced contractions of the guinea-pig ileum
Contractions, the severity of which is recorded, are induced by synthetic LTD4 (leucotriene-D4, potassium salt) in ileum segments that have been taken from guinea-pigs having a body weight of from 300 to 400 g, fastened in an organ bath in Tyrode's solution (38° C., gassing with 95% O2 and 5% CO2) and charged with […]. The degree of inhibition of these contractions that is attributable to the LTD4 -antagonistic action of the test substance is measured. The concentration of test substance that reduces LTD4 -induced contractions to 50% of the starting value is ascertained, this concentration being termed IC50.

In assay [2] the test system is LTD4-induced bronchospasms. Kind of assay: Bronchoconstriction test in guinea-pigs (in vivo, aerosol), LTD4-induced bronchospasm. The settings on record: aerosol treatment, compliance in third minute after LTD4 aerosol. The procedure:
as §1
Bronchoconstriction test in guinea-pigs (in vivo, aerosol)
Male guinea-pigs weighing from 400 to 700 g are anaesthetised intraperitoneally with 1.4 g/kg of urethane, and a polyethylene tube is introduced into the jugular vein. A second polyethylene tube is introduced into the trachea. The pressure in the oesophagus is recorded by means of a tube which is introduced into the oesophagus and which is connected to a Statham pressure transducer. […] The flow is measured by means of this arrangement. […]
Aqueous solutions are each freshly prepared and introduced by means of an on-stream drug vial into the chamber of the spray device. […] The reduction in the compliance in the third minute after the administration of LTD4 is read by comparing the average value of three animals with the average value of three control animals and the percentage inhibition of the compliance is calculated in accordance with the following formula: [formula] If different concentrations of active ingredient are investigated, then the percentage inhibition for each concentration is recorded by entering the log concentration on the abscissa against the percentage inhibition on the ordinate. […]

Assay [3] has as its target phospholipase A2 obtained from human leucocytes. Kind of assay: In vitro test for determining the inhibition of phospholipase A2 obtained from human leucocytes. It counts as biochemical. The settings on record: pH 7, 37°, one hour, 14C-oleic acid labelled E. coli phospholipids. The source says:
In vitro test for determining the inhibition of phospholipase A2 obtained from human leucocytes Human neutrophilic polymorphonuclear leucocytes are isolated from "buffy coats" by multistage fractional sedimentation and deep-frozen. Phospholipase A2 is extracted from the cell suspension by homogenisation with the addition of ice-cold 0.36N H2 SO4 in 2M NaCl and the supernatant obtained after centrifugation at 10,000 g is dialysed against sodium acetate buffer pH 4.5. […] The reaction is stopped by the addition of Dole reagent (isopropanol/heptane/1N H2 SO4 40:10:1, v/v) and the ^14 C-oleic acid released selectively by phospholipase A2 is extracted. […] The ^14 C-oleic acid in the eluate is determined radiometrically. In order to ascertain the inhibitory action of test substances on phospholipase A2, these substances are added to the incubation mixture in the form of solutions in water, dimethyl sulphoxide (final concentration in the mixture up to 5% by volume) or ethanol (final concentration in the mixture up to 2.5% by volume). The strength of action of the test substances is expressed by the IC50, that is to say the concentration that brings about a 50% inhibition of the control activity The IC50 is ascertained on a graph by entering the percentage inhibition on the ordinate against the logarithm of the concentration (μM) on the abscissa.

Assay [4] concerns the target phospholipase C obtained from human thrombocytes. Kind of assay: In vitro test for determining the inhibition of phospholipase C obtained from human thrombocytes. Type of assay: biochemical. The procedure: In vitro test for determining the inhibition of phospholipase C obtained from human thrombocytes
Human thrombocytes are obtained from "buffy coats" by fractional centrifugation and then deep-frozen. Phospholipase C is released by ultrasound treatment of the cell suspension and, after ultracentrifugation (150,000 g, 1 hour) is in soluble form in the supernatant.
In order to determine the enzyme activity, enzyme (20-100 μg protein) is incubated for 5 minutes at 37° in 0.025M tris/malate buffer pH 6 with the addition of 0.2 mM CaCl2 and 0.02 mM radioactively labelled substrate, phosphatidyl- [^14 C]-inositol. The reaction is stopped by extraction by shaking with CHCl3 /CH3 OH 2:1 (v/v). Substrate that has not been consumed is extracted into the organic phase while the reaction product, ^14 C-inositol phosphate, remains in the aqueous phase and can be measured by radiometry of an aliquot.
In order to ascertain the inhibitory action of test substances on phospholipase C, these substances are added to the incubation mixture in the form of solutions in water or dimethyl sulphoxide (final concentration in the mixture up to 5% by volume). The strength of action of the test substances is expressed by the IC50, that is to say the concentration that brings about a 50% inhibition of the control activity. The IC50 is ascertained on a graph by entering the percentage inhibition on the ordinate against the logarithm of the concentration (μM) on the abscissa.

Read-outs that look alike come from different tables or passages of the source.

The source of these data is patent US4863942A, “Novel resorcinol ethers and anti-inflammatory and anti-allergic use thereof” (Ciba-Geigy Corporation, priority 1984, dated 1989).

For orientation: IC50 means the concentration needed to halve the response being measured. Turning to `CCCc1c(OCCCOc2ccc(C)c(NC(=O)C(=O)O)c2)ccc(C(C)=O)c1O` [N-{3-[3-(4-acetyl-3-hydroxy-2-n-propylphenoxy)-propoxy]-6-methylphenyl}-oxamic acid], the IC50 in assay [1] is 0.015 µM; in assay [2], 0.024 % of the aerosol solution. With `CCCc1c(OCCCOc2cccc(NC(=O)c3nnn[nH]3)c2C#N)ccc(C(C)=O)c1O` [N-{3-[3-(4-acetyl-3-hydroxy-2-n-propylphenoxy)-propoxy]-2-cyanophenyl}-1H-tetrazole-5-carboxamide], the IC50 in assay [3] (read-out: IC50) was found to be 20 µM; in assay [4] (pH 6, 37°, 5 minutes, phosphatidyl-[14C]-inositol, read-out: IC50) it was 14 µM. In the case of `CCCc1c(OCC(O)COc2cccc(NC(=O)C(=O)O)c2C#N)ccc(C(C)=O)c1O` (stereo not drawn) [N-{3-[3-(4-acetyl-3-hydroxy-2-n-propyl-phenoxy)-2-hydroxypropoxy]-2-cyanophenyl}-oxamic acid, reference compound], the IC50 entry in assay [3] was “inactive at 100”; in assay [4] (pH 6, 37°, 5 minutes, phosphatidyl-[14C]-inositol), “inactive at 100”. `CCCc1c(OCCCOc2cc(NC(=O)c3nnn[nH]3)c(C)cc2Br)ccc(C(C)=O)c1O` [N-{3-[3-(4-acetyl-3-hydroxy-2-n-propylphenoxy)-propoxy]-4-bromo-6-methylphenyl}-1H-tetrazole-5-carboxamide]: the IC50 is 0.008 µM in assay [1] and 10 µM in assay [3] (read-out: IC50).

In the case of `CCCc1c(OCCCOc2cccc(NC(=O)C(=O)O)c2C#N)ccc(C(C)=O)c1O` [N-{3-[3-(4-acetyl-3-hydroxy-2-n-propylphenoxy)-propoxy]-2-cyanophenyl}-oxamic acid], in assay [3] (read-out: IC50), the IC50 turned out to be 30 µM. `CCCc1c(OCCCOc2cc(NC(=O)C(=O)O)c(C)cc2Br)ccc(C(C)=O)c1O` [N-{3-[3-(4-acetyl-3-hydroxy-2-n-propylphenoxy)-propoxy]-4-bromo-6-methylphenyl}-oxamic acid]: the IC50 in assay [2] is 0.033 % of the aerosol solution; in assay [3] (read-out: IC50) it was 15 µM. Regarding `CCN(CC)CCCC(C)Nc1c2ccc(Cl)cc2nc2ccc(OC)cc12` (stereo not drawn) [mepacrine, reference compound], the half-maximal inhibitory concentration (IC50) in assay [3] (read-out: IC50) amounted to 1600 µM; in assay [4] (mepacrine under the test conditions described, read-out: IC50) it was 20 µM.

Take `CCCc1c(OCCCOc2cccc(NC(=O)C(=O)O)c2)ccc(C(C)=O)c1O` [N-{3-[3-(4-acetyl-3-hydroxy-2-n-propylphenoxy)-propoxy]-phenyl}-oxamic acid]: in assay [3] (read-out: IC50), the IC50 was found to be 23 µM. Take `CCCc1c(OCC(O)COc2cccc(NC(=O)C(=O)O)c2)ccc(C(C)=O)c1O` (stereo not drawn) [N-{3-[3-(4-acetyl-3-hydroxy-2-n-propyl-phenoxy)-2-hydroxypropoxy]-phenyl}-oxamic acid, reference compound]: the IC50 entry in assay [3] is “inactive at 100”.
